These are literature values, as cited in article PMC9056484 (Advances in Therapy, 2022).

Where two headings read alike, the source gives them in different places. A value given as a limit tells only on which side of the number the result lay.

A word on the Ki: it is a measure of affinity in units of concentration, obtained from inhibition or displacement.

One series concerns the target dopamine D3 receptor. The conditions noted are these: read-out: Ki, D3 receptor.
Test in series [1]: not given
The source holds these as a separate data set.

The subject of series [2] is early Parkinson disease patients.
Series [3] has as its system early Parkinson's disease patients. The note with it: pramipexole 1.5 mg/day, 9 months.
Series [4] shares this test system.
For series [5], the system named is early PD patients.
Series [6] relates to early PD patients. The note with it: higher doses of pramipexole in early PD.
Series [7] relates to Parkinson's disease patients. The note with it: pramipexole monotherapy.
Test in series [8]: not given
The source holds these as a separate data set.

The next series deals with human albumin. The conditions noted are these: concentration range 1–100 ng/ml.
The test system of series [9] is early Parkinson disease patients. The conditions noted are these: rasagiline 1 mg/day, Week 26.
Series [10] has as its system Parkinson's disease patients. The conditions noted are these: for effects on clinical progression (in words): delayed-start design trial.
The mark [11] stands for this setting: Pramipexole 1.5 mg, n = 54, STEP-UP.
The mark [12] stands for this setting: Pramipexole groups combined (1.5–6 mg), N = 213, STEP-UP.
Setting [13] is: Pramipexole 0.5 mg BID, n = 81, PRAMI-BID.
The mark [14] stands for this setting: Pramipexole 0.5 mg TID, n = 80, PRAMI-BID.
[15] abbreviates: Pramipexole 0.75 mg BID, n = 73, PRAMI-BID.

As to `NC1CCc2ccccc21` (centres unmarked) [1-aminoindan], the “MAO-B inhibition (in words)” value in the series on MAO-B is on record as “weak MAO-B inhibitor”.

As for `CCCN[C@H]1CCc2nc(N)sc2C1` [Pramipexole], the absolute oral bioavailability is on record as greater than 90%. Further, the Ki at dopamine D3 receptor is 0.5 nM. For the same molecule, the “affinity for D1 receptors, times lower than that to D3 receptors” value with D1 receptors was “around 200,000 times”. For the same molecule, the “absorbed dose eliminated unchanged” value (almost exclusively by the kidneys) is reported as greater than 90%. Besides, the protein bound in [1] was less than 20%. In series [2] (setting [11]), the “Adverse event: Confusion” value is reported as 3 (5.6), the “Adverse event: Constipation” value is listed as 4 (7.4), the “Adverse event: Dizziness” value was 10 (18.5) and the “Adverse event: Fatigue” value was 4 (7.4). Also, in series [2] (setting [11]), the “Adverse event: Hallucination” value is 4 (7.4), the “Adverse event: Headache” value was 5 (9.2), the “Adverse event: Insomnia” value is on record as 2 (3.7) and the “Adverse event: Nausea” value is on record as 9 (16.7). For the same molecule, the “Adverse event: Somnolence” value in [2] (setting [11]) was 9 (16.7). Also, in series [2] (setting [12]), the “Adverse event: Confusion” value is reported as 9 (4.2), the “Adverse event: Constipation” value is 23 (10.8), the “Adverse event: Dizziness” value is recorded as 39 (18.3) and the “Adverse event: Hallucination” value is recorded as 14 (6.6). In series [2] (setting [12]), the “Adverse event: Headache” value is on record as 24 (11.3), the “Adverse event: Insomnia” value is given as 16 (7.5), the “Adverse event: Nausea” value is on record as 42 (19.7) and the “Adverse event: Somnolence” value is given as 58 (27.2). Besides, in series [2] (pramipexole 1.5 mg, within 10 weeks), the patients with hallucinations is on record as greater than 5%. In addition, the “improvement of Total UPDRS scores versus placebo” value in series [2] (pramipexole 1.5 mg/day, Week 10) is given as 5.2 points. For the same molecule, the “improvement of Total UPDRS scores versus placebo” value in [3] is 4.8 points. Also, in [4] (setting [13]), the “Adverse event: Abnormal dreams” value is 3 (3.7), the “Adverse event: Constipation” value is 8 (9.9), the “Adverse event: Dizziness” value is recorded as 9 (11.1) and the “Adverse event: Fatigue” value was 6 (7.4). Moreover, in series [4] (setting [13]), the “Adverse event: Headache” value is 7 (8.6), the “Adverse event: Insomnia” value is 3 (3.7), the “Adverse event: Nausea” value is given as 18 (22.2) and the “Adverse event: Peripheral edema” value was 2 (2.5). Besides, the “Adverse event: Somnolence” value in series [4] (setting [13]) is listed as 14 (17.3). Further, in series [4] (setting [14]), the “Adverse event: Abnormal dreams” value was 5 (6.3), the “Adverse event: Constipation” value is 5 (6.3), the “Adverse event: Dizziness” value is 9 (11.3) and the “Adverse event: Fatigue” value is recorded as 4 (5.0). In series [4] (setting [14]), the “Adverse event: Headache” value is listed as 4 (5.0), the “Adverse event: Insomnia” value was 6 (7.5), the “Adverse event: Nausea” value is on record as 15 (18.8) and the “Adverse event: Peripheral edema” value was 3 (3.8). Moreover, the “Adverse event: Somnolence” value in [4] (setting [14]) is 20 (25.0). Also, in series [4] (setting [15]), the “Adverse event: Abnormal dreams” value was 2 (2.7), the “Adverse event: Constipation” value is recorded as 7 (9.6), the “Adverse event: Dizziness” value is 5 (6.8) and the “Adverse event: Fatigue” value is reported as 7 (9.6). Besides, in series [4] (setting [15]), the “Adverse event: Headache” value is given as 6 (8.2), the “Adverse event: Insomnia” value is 11 (15.1), the “Adverse event: Nausea” value is on record as 11 (15.1) and the “Adverse event: Peripheral edema” value is given as 4 (5.5). For the same molecule, the “Adverse event: Somnolence” value in series [4] (setting [15]) was 16 (21.9). Further, the “Effects on PDQ-39 Total scores versus placebo (in words)” value in [4] (pramipexole 1.0 mg/day (0.5 mg BID), P = 0.32) is reported as “not significantly different from placebo”. For the same molecule, the “PDQ-39 Total scores, treatment effect vs. placebo” value in [4] (pramipexole 1.5 mg/day (0.75 mg BID or 0.5 mg TID), P ≤ 0.05) is reported as 2.1 points. In series [4] (pramipexole 1–1.5 mg/day, Week 12), the “placebo-adjusted improvements in Total UPDRS” value is 4.4–4.7 points. For the same molecule, the incidence of somnolence with early PD patients [5] (pramipexole pivotal studies in early PD) was 22%. In addition, the patients with hallucinations with early PD patients [5] (pramipexole up to 4.5 mg/day, early PD pivotal trials) is listed as 16.5%. Moreover, the “placebo-adjusted changes from baseline in ESS score” value with early PD patients [6] was 1.0–2.1. In addition, in [7], the “disease-modifying effect (in words)” value is “did not find evidence of a disease-modifying effect”.

Take `C#CCN[C@@H]1CCc2ccccc21` [Rasagiline, N-propargyl-1-(R)-aminoindan]: in the series with MAO-B, the “MAO-B inhibition (in words)” value was “potent and irreversible inhibitor of MAO-B”. The absolute bioavailability result in [8] is given as “about 36%”. Also, the “time to peak plasma concentration (Cmax)” value in series [8] is recorded as “approximately 1 hour”. Moreover, the “mean extent of binding to human albumin” value with human albumin is reported as 61–63%. Moreover, the “improvement of Total UPDRS scores versus placebo” value is 4.2 points in series [9] and 3.0 points in series [10] (rasagiline 1 mg/day, ~ Week 36). Also, the “effects on clinical progression (in words)” value in [10] (rasagiline 1.0 mg) is “statistically significant effects on clinical progression”; in series [10] (rasagiline 2.0 mg), “but not 2.0 mg, had statistically significant effects”.
